Data on 1 compound can be found in patent US20250290057A1, “LYTIC AGENT FOR ENTEROCOCCUS FAECALIS” (priority 2022, published 2025).

One assay concerns E. faecalis isolates. Nature of the assay: Minimal inhibitory concentration of antibacterial agents, "Eiken" DP42 dry plate. It is filed as cell-based, Enterococcus faecalis. The note with it: for MIC: Enterococcus faecalis. On the procedure:
(§1) The sensitivity to an antibacterial agent for each of the above-described 30 Enterococcus bacterial strains was invenstigated. Specifically, the bacterial strains prepared in 1 McFarland standard with physiological saline were diluted 500-fold with a BHI culture medium, and then aerobically cultured in solid-phase wells of an “Eiken” DP42 dry plate (Eiken Chemical Co., Ltd., Tokyo, Japan) for 24 hours.
(§2) The minimal inhibitory concentration of any one of the antibacterial agents, i.e., daptomycin (DAP), vancomycin (VCM), teicoplanin (TEIC), and linezolid (LZD), was determined in accordance with the instruction of the product. […] The results obtained by testing resistance to the antibacterial agents of the E. faecalis strains (11 strains) are shown in Table 1 below.

In another assay the test system is E. faecium isolates. The description is as above. The note with it: all E. faecium (19 strains). It is filed as cell-based, Enterococcus faecium. On the procedure: as §1, §2
Assay [1] relates to E. faecalis strains JCM5803, JCM8902. Description: Vancomycin resistance evaluation (method of Example 2 (2)). The class given is cell-based. Also on record: key: resistant: +; nonresistant: −. Here is the method:
as §1, §2
(§3) The hemolytic activity of each of the bacterial strains was measured with a hemolysis assay using a Nissui Plate Horse Blood Agar medium. The cytolysin-related gene was detected with PCR. The vancomycin resistance was evaluated using the method described in (2) in Example 2. The vanA gene and the vanB gene that are vancomycin-resistant genes were detected with PCR. Furthermore, each bacterial strain was aerobically cultured in a BHI culture medium, and centrifuged at 300×g for 5 minutes for collection. The cell pellets were washed, and resuspended in a HiTrap buffer. The phage-derived endolysin was added at a final concentration of 50 μg/mL to the cell resuspension liquid. The resulting suspension was incubated at 37° C., and the lytic activity was measured, using the presence or absence of a bacterial lump as an index.

Assay [2] concerns E. faecium strain JCM5804. The description is as above. It is filed as cell-based. Further details: key: resistant: +; nonresistant: −. On the procedure: as §1, §2, §3

In brackets after ≈: the same amount, converted by molar mass. Where two headings read alike, the source gives them in different places.

`CN[C@H](CC(C)C)C(=O)N[C@H]1C(=O)N[C@@H](CC(N)=O)C(=O)N[C@H]2C(=O)N[C@H]3C(=O)N[C@H](C(=O)N[C@H](C(=O)O)c4cc(O)cc(O)c4-c4cc3ccc4O)[C@H](O)c3ccc(c(Cl)c3)Oc3cc2cc(c3O[C@@H]2O[C@H](CO)[C@@H](O)[C@H](O)[C@H]2O[C@H]2C[C@](C)(N)[C@H](O)[C@H](C)O2)Oc2ccc(cc2Cl)[C@H]1O` [vancomycin]: the MIC in the assay on E. faecalis isolates (read-out: Minimal inhibitory concentration, E. faecalis strain OCU009_35_4) stood at 2 µg/mL (≈ 1.38 µM); in the assay with E. faecalis isolates (read-out: Minimal inhibitory concentration, E. faecalis strain OCU009_35_10), 4 µg/mL (≈ 2.76 µM); in the assay on E. faecalis isolates (read-out: Minimal inhibitory concentration, E. faecalis strain OCU015_56_6), 2 µg/mL (≈ 1.38 µM); in the assay with E. faecalis isolates (read-out: Minimal inhibitory concentration, E. faecalis strain OCU015_56_7), 2 µg/mL (≈ 1.38 µM); in the assay with E. faecalis isolates (read-out: Minimal inhibitory concentration, E. faecalis strain OCU031_7_1) it was 4 µg/mL (≈ 2.76 µM); with E. faecalis isolates (read-out: Minimal inhibitory concentration, E. faecalis strain OCU031_7_9) it was 2 µg/mL (≈ 1.38 µM). Also, the MIC in the assay with E. faecalis isolates (read-out: Minimal inhibitory concentration, E. faecalis strain OCU031_14_5) is 4 µg/mL (≈ 2.76 µM); with E. faecalis isolates (read-out: Minimal inhibitory concentration, E. faecalis strain OCU031_14_8), 2 µg/mL (≈ 1.38 µM); with E. faecalis isolates (read-out: Minimal inhibitory concentration, E. faecalis strain OCU031_pre_6), 2 µg/mL (≈ 1.38 µM); in the assay with E. faecalis isolates (read-out: Minimal inhibitory concentration, E. faecalis strain OCU031_pre_7) it was 2 µg/mL (≈ 1.38 µM); with E. faecalis isolates (read-out: Minimal inhibitory concentration, E. faecalis strain OCU031_pre_10) it was 2 µg/mL (≈ 1.38 µM). Also, the “Sensitivity of strains to antibacterial agent” value with E. faecalis isolates (all E. faecalis strains (11 strains)) and with E. faecium isolates was “exhibited sensitivity” throughout. Moreover, the values for the Vancomycin-resistance entry in assay [1] (strain JCM5803), in assay [1] (strain JCM8902) and in assay [2] were “−”, “+” and “−”, respectively.
